In one experiment the target is SARS-COV-2 3CLpro (Severe acute respiratory syndrome coronavirus 2, UniProt P0DTD1). As to the kind of experiment: biochemical.
The subject of another experiment is SARS-COV-2. As to the kind of experiment: microbe, parasite or virus in culture. The format is cell-based. To be noted: Severe acute respiratory syndrome coronavirus 2, 72 h, read-out: ID50 (Antiviral Data).

This passage reports IC50 results from patent US12466792B2 (priority 2021, dated 2025).

Each structure is given as a SMILES string.

With `CC(C)C[C@@H](C(=O)N[C@H](C#N)C[C@@H]1CCNC1=O)N(C)C(=O)[C@@H](NC(=O)C(F)(F)F)C(C)(C)C`, the IC50 on SARS-COV-2 3CLpro was 0.1 to 999 nM; with SARS-COV-2, 10100 to 100000 nM.
As for `COc1cccc2[nH]c(C(=O)N[C@@H](CC(C)C)C(=O)N[C@H](C#N)C[C@@H]3CCCNC3=O)cc12`, the values for the IC50 against SARS-COV-2 3CLpro and in the experiment with SARS-COV-2 were 1000 to 10000 nM and 10100 to 100000 nM, respectively.
As for `CC(C)C[C@H](NC(=O)OCc1ccncc1)C(=O)N[C@H](C#N)C[C@@H]1CCCNC1=O`, the IC50 against SARS-COV-2 3CLpro is 0.1 to 999 nM; in the experiment on SARS-COV-2, above 100000 nM.
For the compound `CC(C)C[C@H](NC(=O)OCc1cccnc1)C(=O)N[C@H](C#N)C[C@@H]1CCCNC1=O`, the IC50 against SARS-COV-2 3CLpro was 0.1 to 999 nM; in the experiment on SARS-COV-2, above 100000 nM.
Turning to `CC(C)C[C@H](NC(=O)OCc1ccncc1)C(=O)N[C@H](C#N)C[C@@H]1CCNC1=O`, the figures for the IC50 at SARS-COV-2 3CLpro and with SARS-COV-2 were 0.1 to 999 nM and above 100000 nM, respectively.
The matching figures for `CC(C)C[C@H](NC(=O)OCc1ccccn1)C(=O)N[C@H](C#N)C[C@@H]1CCCNC1=O`: 0.1 to 999 nM and above 100000 nM.
Take `C=CCN(C(=O)c1cc2c(OC)cccc2[nH]1)[C@@H](CC(C)C)C(=O)N[C@H](C#N)C[C@@H]1CCNC1=O`: the figures for the IC50 against SARS-COV-2 3CLpro and in the experiment on SARS-COV-2 were 0.1 to 999 nM and above 100000 nM, respectively.
In the case of `CC(C)C[C@H](NC(=O)OCc1ccccc1)C(=O)N[C@H](C#N)C[C@@H]1CCCNC1=O`, the IC50 against SARS-COV-2 3CLpro was in the range of 0.1 to 999 nM; with SARS-COV-2, 1000 to 10000 nM.
On to `COc1cccc2[nH]c(C(=O)N(C)[C@@H](CC(C)C)C(=O)N[C@H](C#N)C[C@@H]3CCNC3=O)cc12`, for which the IC50 at SARS-COV-2 3CLpro was 0.1 to 999 nM; with SARS-COV-2, above 100000 nM.
The matching figures for `CC(C)C[C@@H](C(=O)N[C@H](C#N)C[C@@H]1CCNC1=O)N(C)C(=O)[C@@H](NC(=O)C(F)(F)F)C(C)C`: 1000 to 10000 nM and 10100 to 100000 nM.
